How the values were obtained:
[1] = test system: NOS3-NLuc-2A-tdTomato hPSCs; experiment: Arterial endothelial cell (AEC) differentiation, flow cytometry for CD144+ DLL4+ cells; format: cell-based, human; conditions: for AEC differentiation from PSCs: general statement, timing not given
Source text: FIG. 3A is a bar graph showing arterial endothelial cell differentiation in response to treatment on days 2 through 6 of different concentrations of compounds identified in compound screening assays. Differentiated arterial endothelial cells were identified by flow cytometry for CD144+ DLL4+ cells after 6 days of treatment.
FIG. 3B is a bar graph showing arterial endothelial cell differentiation in response to three specific compounds at day 3-6 of differentiation.
NOS3-NLuc-Tom human pluripotent stem cells (hPSCs), prepared as set forth above, were cultured in E8BAC medium for two days (day 0-2) to induce mesoderm formation. On days 2-5 cells received Five Factor medium daily, and AEC collected on day 6. More than 90% of the resulting cells were CD144^+CXCR4^+DLL4^+, consistent with differentiation to AEC cells.
C21-C33 compounds were further tested to confirm their effects. […] Thus, the effects of C21, C22, and C24-C31 on AEC differentiation from NOS3-NLuc-2A-tdTomato hPSCs were measured.

AECs = experiment: Nitric oxide (NO) production assay with DAF-FM; format: cell-based, human; conditions: AECs treated for 2 days, 1 μM DAF-FM, flow cytometry (FIG. 4A, 4B)
Procedure: FIG. 4A is a graph of nitric oxide (NO) production in response to contacting NOS3-NLuc-2A-tdTomato construct-containing reporter cells derived from arterial endothelial with compounds identified in the screen for 2 days.
These AECs were seeded on a vitronectin-coated 24-well plate (1×10^5 cells/well) with FVIR medium. Candidate compounds were added to the medium. Two days later, the medium was changed to fresh FVIR media containing 1 μM DAF-FM (4-Amino-5-Methylamino-2′,7′-Difluorofluorescein Diacetate). Cells were cultured for 30 mins and harvested for flow cytometric analysis. DAF-FM is nonfluorescent until it reacts with NO to form a fluorescent benzotriazole. Results of these experiments are shown in FIG. 3A, FIG. 3B, and FIG. 4.

[2] = compound added from day 2 to day 6 of differentiation, dose-dependent (FIG. 3A)
[3] = compound added from day 3 to day 6 of differentiation (FIG. 3B)

SMILES	percentage of AEC on day 6 compared to control treatment [1, 2]	percentage of AEC on day 6 compared to control treatment [1, 3]	AEC differentiation from PSCs [1]	NO production (DAF-FM fluorescence) compared to control treatment (AECs)
O=S(=O)(N1CCCCCC1)N1CCN(c2ccnc3cc(Cl)ccc23)CC1 [C21]	increase	increased	increase	increase
COc1ccc(C2CCCN2Cc2cc(C(C)(C)C)cc(O)c2O)cc1 (centres unmarked) [C22]	increase		increase	increase
CCc1ccc(S(=O)(=O)N2CCCc3cc(C)ccc32)cc1 [C23]		increased	increase	increase
Cc1ccc(CN2C(=O)NC(C)(c3ccc(Cl)cc3Cl)C2=O)cc1 (centres unmarked) [C24]			increase	increase
CNS(=O)(=O)c1ccc(NC2CCc3ccccc32)c([N+](=O)[O-])c1 (centres unmarked) [C25]			increase	
CC1=CC(=O)C2=C(C)CC[C@@H]3[C@H](OC(=O)[C@H]3C)[C@@H]12 [C28, Leucomisine]			increase	
CNC(=O)c1c(F)cccc1Nc1nc(Nc2cc3c(cc2OC)CCN3C(=O)CN(C)C)nc2[nH]ccc12 [C31, GSK1838705A, reference compound]				increase
CCCCCCCCCCCCCCCCCCOCC(COP(=O)([O-])OCC[N+](C)(C)C)OC (centres unmarked) [C33, 1-Octadecyl-2-methylglycero-3 PC]		increased	increase	

— US20240319173A1, “REAGENTS AND METHODS FOR PROMOTING ARTERIAL ENDOTHELIUM DIFFERENTIATION AND NITRIC OXIDE PRODUCTION” (Wisconsin Alumni Research Foundation, priority 2023, published 2024)
